Results published in US4550166A, “(Pyridinyl)-1,2,4-triazolo[4,3-a]pyridines” (American Cyanamid Company, priority 1984, dated 1985).

What was measured:
[1] = tested on: clonic seizures caused by pentylenetetrazole in rats; assay: Protection Against Clonic Siezures Caused by Pentylenetetrazole in Rats; assay type: in vivo; conditions: Dose 25 mg/kg, orally or intraperitoneally, pentylenetetrazole 23 mg/kg i.v. at 30 or 60 minutes
Method: The antianxiety properties of the novel compounds of the present invention have been established in a test which indicates anxiolytic activity by the measure of protection from convulsions resulting from the administration of pentylenetetrazole. Single or graded dose levels of the test compounds were administered orally or intraperitoneally in a 2% starch vehicle, containing 0.5% v/v polyethylene glycol and one drop of Polysorbate 80 to groups of at least four rats. At 30 or 60 minutes, the rats were treated intravenously with pentylenetetrazole at a dose of 23 mg/kg of body weight. This dose is estimated to cause clonic seizures in 99% of unprotected rats.
It has been reported [R. T. Hill and D. H. Tedeschi, "Animal Testing and Screening Procedures in Evaluating Psychotropic Drugs" in An Introduction to Psychopharmacology, Eds. R. R. Rech and K. E. Moore, Raven Press, New York, pp 237-288 (1971)] that there is a high degree of correlation between antagonism of pentylenetetrazole seizures in rats and antianxiety effects in higher warm-blooded animals.

[2] = tested on: Brain-specific Receptors of Rats (^3 H-benzodiazepine binding); assay: Inhibition of the Binding of ^3 H--Benzodiazepine to Brain-specific Receptors of Rats; set-up: species or system rats (male albino, Wistar strain); conditions: 1 μM; whole cortex of rats, P2 fraction; ^3 H-diazepam (1.5 nM) or ^3 H-flunitrazepam (1.0 nM)
[3] = tested on: conflict situation in rats; assay: Non-Conditioned Passive Avoidance Test in Rats; assay type: in vivo, Wistar strain rats; set-up: key: Active: considered active if the number of shocks received by the test group is significantly higher than the control group by the Mann-Witney U test; conditions: Dose 25 mg/kg, oral or intraperitoneal, 30 or 60 minutes
Method: Another test which has been used to assess anti-anxiety effects is a non-conditioned passive avoidance procedure described by J. R. Vogel, B. Beer and D. E. Clody, "A Simple and Reliable Conflict Procedure for Testing Antianxiety Agents", Psychopharmacologia, 21, 1-7 (1971). A conflict situation was induced in rats by a modification of this method.
Groups of 6 naive, Wistar strain rats, weighing 200-240 g each, were deprived of water for 48 hours and food for 24 hours. The test compounds were administered in single or graded, oral or intraperitoneal doses, suspended in a 2% starch vehicle containing 0.5% v/v polyethylene glycol and one drop of Polysorbate 80. Control animals received the vehicle alone. At 30 or 60 minutes each rat was placed in an individual plexiglass chamber. Water was available ad libitum from a tap located in the rear of the chamber. A 0.7 milliampere DC shocking current was established between the stainless steel grid floor and the tap. After 20 licks of non-shocked drinking, a shock was delivered for 2 seconds and then further shocks were delivered on a ratio of one shock for 2 seconds for every 20 licks. This was continued for a total of 3 minutes. The number of shocks taken by each rat during the 3 minute interval was recorded and compared to a control group.

SMILES	% of Rats Protected [1] [%]	% Inhibition [2] [%]	Result [3]
Cc1nnc2ccc(-c3cccnc3)cn12 [3-Methyl-6-(3-pyridinyl)-1,2,4-triazolo[4,3-a]pyridine]	75	20	–
Cc1nnc2cc(-c3ccccn3)ccn12 [3-Methyl-7-(2-pyridinyl)-1,2,4-triazolo[4,3-a]pyridine]	–	27	–
Cc1nnc2cc(-c3ccncc3)ccn12 [3-Methyl-7-(4-pyridinyl)-1,2,4-triazolo[4,3-a]pyridine]	–	24	–
Cc1nnc2c(-c3ccccn3)cccn12 [3-Methyl-8-(2-pyridinyl)-1,2,4-triazolo[4,3-a]pyridine]	–	22	Active
Cc1nnc2c(-c3cccnc3)cccn12 [3-Methyl-8-(3-pyridinyl)-1,2,4-triazolo[4,3-a]pyridine]	–	24	Active
c1ccc(-c2cccc3nncn23)nc1 [5-(2-Pyridinyl)-1,2,4-triazolo[4,3-a]pyridine]	–	26	–
c1cncc(-c2ccc3nncn3c2)c1 [6-(3-Pyridinyl)-1,2,4-triazolo[4,3-a]pyridine]	33	13	–
c1ccc(-c2ccn3cnnc3c2)nc1 [7-(2-Pyridinyl)-1,2,4-triazolo[4,3-a]pyridine]	25	15	–
c1ccc(-c2cccn3cnnc23)nc1 [8-(2-Pyridinyl)-1,2,4-triazolo[4,3-a]pyridine]	–	26	–
c1cncc(-c2cccn3cnnc23)c1 [8-(3-Pyridinyl)-1,2,4-triazolo[4,3-a]pyridine]	–	18	–
